Data: patent publication US9533983B2, “Antiplatelet agent” (Mitsubishi Tanabe Pharma Corporation, priority 2009, dated 2017)

Legend:
[1] = tested on: Ristocetin-Induced Platelet Aggregation; test: Platelet aggregation inhibitory activity: ristocetin-induced platelet aggregation in platelet rich plasma; format: cell-based; conditions: Cavia porcellus, guinea pig PRP
Description: (§1) A blood of a guinea pig was sampled by using a 1/10 volume of a 3.8% sodium citrate as a platelet aggregation inhibitor, and a platelet rich plasma (PRP) was separated by centrifuging the blood sample at 1100 rpm for 10 min. After fractionating the PRP in the upper layer, the lower layer was centrifuged at 3000 rpm for 10 min to fractionate the platelet poor plasma (PPP). To 100 μL of PRP, a 1 μL solution of each compound was added, and after still standing at 37° C. for 1 min, the mixture was stirred at 37° C. for 1 min by a stirrer. Then, 11 μL of collagen, ristocetin, or ADP was added thereto to induce the platelet aggregation. The platelet aggregation ability was measured by using the mCM hematolaser 313M (L-M-S Inc.). Based on the assumption that a light transmittance of PPP corresponds to a 100% coagulation value, an aggregation rate at each concentration of the compound was determined, then, an IC50 value was calculated therefrom.
[Platelet Aggregation Inhibitory Activities: Ristocetin-Induced Platelet Aggregation]

[2] = tested on: Collagen-Induced Platelet Aggregation; test: Platelet aggregation inhibitory activity: collagen-induced platelet aggregation in platelet rich plasma; format: cell-based; conditions: Cavia porcellus, guinea pig PRP
Description: as §1
[Platelet Aggregation Inhibitory Activities: Collagen-Induced Platelet Aggregation]

Row | Structure (SMILES) | IC50 [1] [nM] | IC50 [2] [nM]
1 | COc1ccc(-n2c(-c3ccc([N+](=O)[O-])cn3)nc3cc(C(F)(F)F)ccc32)nn1 [Example 53, 1-(6-methoxypyridazin-3-yl)-2-(5-nitropyridin-2-yl)-5-(trifluoromethyl)-1H-benzimidazole] | 42 | 57
2 | CCc1ccc(-c2nc3cc(C(F)(F)F)ccc3n2-c2ccc(OC)nn2)nc1 [Example 56, 2-(5-ethylpyridin-2-yl)-1-(6-methoxypyridazin-3-yl)-5-(trifluoromethyl)-1H-benzimidazole] | 28 | 47
3 | COc1ccc(-n2c(-c3cc(C)ccn3)nc3cc(C(F)(F)F)ccc32)nn1 [Example 58, 1-(6-methoxypyridazin-3-yl)-2-(4-methylpyridin-2-yl)-5-(trifluoromethyl)-1H-benzimidazole] | 280 | 170
4 | CSc1ccc(-n2c(-c3ccccn3)nc3cc(C(F)(F)F)ccc32)nn1 [Example 67, 1-[6-(methylthio)pyridazin-3-yl]-2-pyridin-2-yl-5-(trifluoromethyl)-1H-benzimidazole] | 230 | 170
5 | COc1ccc(-n2c(-c3ccn(C)n3)nc3cc(C(F)(F)F)cnc32)cn1 [Example 73, 3-(6-methoxypyridin-3-yl)-2-(1-methyl-1H-pyrazol-3-yl)-6-(trifluoromethyl)-3H-imidazo[4,5-b]pyridine] | 83 | 80
6 | COc1ccc(-n2c(-c3cc(Br)ccn3)nc3cc(C(F)(F)F)ccc32)nn1 [Example 75, 2-(4-bromopyridin-2-yl)-1-(6-methoxypyridazin-3-yl)-5-(trifluoromethyl)-1H-benzimidazole] | 380 | 200
7 | COc1ccc(-n2c(-c3ncccc3C#N)nc3cc(C(F)(F)F)ccc32)nn1 [Example 81, 2-[1-(6-methoxypyridazin-3-yl)-5-(trifluoromethyl)-1H-benzimidazole-2-yl]nicotinonitrile] | 500 | 220

Other lines, results leading:

Row | IC50 [1] [nM] | IC50 [2] [nM] | Structure (SMILES)
8 | 100 | 190 | COc1ccc(-n2c(-c3nccs3)nc3cc(C(F)(F)F)ccc32)nn1 [Example 54, 1-(6-methoxypyridazin-3-yl)-2-(1,3-thiazol-2-yl)-5-(trifluoromethyl)-1H-benzimidazole]
9 | 60 | 84 | COc1ccc(-n2c(-c3ccccn3)nc3cc(C(F)(F)F)c(Cl)cc32)cn1 [Example 55, 6-chloro-1-(6-methoxypyridin-3-yl)-2-pyridin-2-yl-5-(trifluoromethyl)-1H-benzimidazole]
10 | 130 | 180 | COc1ccc(-n2c(-c3cc(C)on3)nc3cc(C(F)(F)F)ccc32)nn1 [Example 72, 2-(5-methylisoxazol-3-yl)-1-(6-methoxypyridazin-3-yl)-5-(trifluoromethyl)-1H-benzimidazole]
11 | 70 | 53 | COc1ccc(-n2c(-c3cscn3)nc3cc(C(F)(F)F)ccc32)nn1 [Example 89, 1-(6-methoxypyridazin-3-yl)-2-(1,3-thiazol-4-yl)-5-(trifluoromethyl)-1H-benzimidazole]
12 | 20 | 60 | COc1ccc(-n2c(-c3cnc(C)cn3)nc3cc(C(F)(F)F)ccc32)nn1 [Example 90, 1-(6-methoxypyridazin-3-yl)-2-(5-methylpyrazine-2-yl)-5-(trifluoromethyl)-1H-benzimidazole]
13 | 100 | 190 | COc1ccc(-n2c(-c3csc(C)n3)nc3cc(C(F)(F)F)ccc32)nn1 [Example 94, 1-(6-methoxypyridazin-3-yl)-2-(2-methyl-1,3-thiazol-4-yl)-5-(trifluoromethyl)-1H-benzimidazole]
14 | 35 | 66 | COc1ccc(-n2c(-c3cocn3)nc3cc(C(F)(F)F)cnc32)cn1 [Example 107, 3-(6-methoxypyridin-3-yl)-2-(1,3-oxazol-4-yl)-6-(trifluoromethyl)-3H-imidazo[4,5-b]pyridine]
